In PubChem BioAssay (NCI):
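In this assay, cells in 96-well plates receive the compound at five concentrations for 48 hours. Endpoints are linearly interpolated between the surrounding concentrations. The concentration for 50% growth inhibition is given as GI50. The concentration for full growth arrest is given as TGI.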

What was measured:
Assay in all cases: inhibition of tumour cell growth, NCI panel, 48 h
PC-3 prostate = system: PC-3 prostate
M14 melanoma = system: M14 melanoma
HS 578T breast = system: HS 578T breast
NCI-H522 lung = system: NCI-H522 lung
NCI-H226 lung = system: NCI-H226 lung
SR leukemia = system: SR leukemia
MDA-MB-231 breast = system: MDA-MB-231 breast
MDA-N = system: MDA-N
BT-549 breast = system: BT-549 breast
A498 renal = system: A498 renal
MDA-MB-435 = system: MDA-MB-435

Row | Structure (SMILES) | TGI (PC-3 prostate) [µM] | TGI (M14 melanoma) [µM] | TGI (HS 578T breast) [µM] | TGI (NCI-H522 lung) [µM] | TGI (NCI-H226 lung) [µM] | TGI (SR leukemia) [µM] | TGI (MDA-MB-231 breast) [µM] | TGI (MDA-N) [µM] | TGI (BT-549 breast) [µM] | TGI (A498 renal) [µM] | TGI (MDA-MB-435) [µM] | GI50 (PC-3 prostate) [nM] | GI50 (HS 578T breast) [µM] | GI50 (NCI-H522 lung) [nM] | GI50 (NCI-H226 lung) [nM] | GI50 (SR leukemia) [nM] | GI50 (BT-549 breast) [µM] | GI50 (A498 renal) [µM] | GI50 (MDA-MB-435) [nM]
1 | O=C(O)CC1(CC(=O)O)Nc2ccccc2SC1=O | > 100 | > 100 | > 100 | > 100 | > 100 | > 100 | > 100 | > 100 | > 100 | > 100 | > 100 |  |  |  |  |  |  |  | 
2 | CC(CCC(=O)O)C1CCC2C3C(O)CC4CC(O)CCC4(C)C3CC(O)C12C (stereo not drawn) | > 100 | > 100 | > 100 | > 100 | > 100 | > 100 | > 100 | > 100 | > 100 | > 100 | > 100 |  |  |  |  |  |  |  | 
3 | C[C@]12CCc3sc(Nc4ccc(O)cc4)nc3C1=CC[C@@H]1[C@@H]2CC[C@]2(C)C(=O)CC[C@@H]12 | 8.15 |  | > 100 | 2.96 | 8.52 | > 100 |  |  | > 100 | 80.6 | 5.32 | 2490 | 3.38 | 1420 | 2860 | 2720 | 3.13 | 14.2 | 2080
4 | CN1CCN(c2cc(-c3cc4ccccc4o3)oc(=O)c2C#N)CC1 |  | > 100 |  |  | 60.7 | > 100 |  |  |  | > 100 |  |  |  |  |  |  |  |  | 
5 | O=C(NN1C(=O)CSC1c1ccc(C(F)(F)F)cc1)c1ccncc1 (stereo not drawn) |  |  |  | > 100 | > 100 |  |  |  |  | > 31.6 |  |  |  |  |  |  |  |  | 
6 | CCSc1nc(=[N+]2CCCC2)ss1 | > 100 | > 100 | > 100 | > 100 | > 91.3 |  | > 100 | > 100 | 95.9 | > 100 | 42.5 |  |  |  |  |  |  |  | 
7 | COc1ccc(-c2c3c(nc4nc(SC)nc(SC)c24)CCCC3)cc1OC | > 100 | > 100 | 86.3 | > 100 | > 100 | 46.4 | > 100 | > 100 | > 100 | > 100 | > 100 |  |  |  |  |  |  |  | 
8 | CCc1nnc(-c2nsc3ccccc23)s1 |  | > 100 |  |  |  | > 100 |  |  |  |  |  |  |  |  |  |  |  |  | 
9 | Cc1ccc(Nc2nc(NS(=O)(=O)c3cc(C(=O)Nc4ccc(Cl)cc4)c(Cl)cc3S)n[nH]2)cc1 | > 100 | > 100 | > 100 |  |  | > 100 | > 100 | > 100 | > 100 |  | > 100 |  |  |  |  |  |  |  | 
10 | O=C1OCC/C1=C/c1ccc(N=Nc2c(O)ccc3ccccc23)cc1 | 49.6 | 66.3 | 54.3 | 41.8 | 36 | 37.5 | > 100 | 33.5 | 49.9 | 34.2 | 56.5 |  |  |  |  |  |  |  | 
11 | COc1cc2c(cc1OC)C(C)N(C)c1c-2c(OC(C)=O)cc2cc(OC)c(OC)cc12 (stereo not drawn) | > 90.8 | 28.2 | > 57.1 | 19.2 | > 44.1 |  | 27.9 | 38.3 | 47.1 | > 52.9 | 35.6 |  |  |  |  |  |  |  | 
12 | CCOP(=O)(CN=C(c1ccccc1)c1ccccc1)OCC | > 100 | > 100 | > 100 | > 100 | > 100 | > 100 | > 100 | > 100 |  | > 100 | > 100 |  |  |  |  |  |  |  | 
13 | NC(=S)N/N=C1\c2ccccc2CCC1CCC1(O)CCc2ccccc2C1=O (stereo not drawn) | 88.7 | 38 | 63 |  |  | > 100 | > 100 | 58.4 | 31.6 |  | 46.4 |  |  |  |  |  |  |  | 
14 | CC1OC1C(=O)C1(O)C(C)C(O)C23OC2(C(O)c2c(O)cccc2C3=O)C1O (stereo not drawn) |  |  |  | 0.338 | 0.838 |  |  |  |  | 1.2 |  |  |  |  |  |  |  |  | 
